Measurements as given in patent publication US7772241B2, “Variolin derivatives and their use as antitumor agents” (Pharma Mar S.A., priority 2001, dated 2010).
Like-named read-outs stand apart in the source and are kept apart here.

Tests used:
PANC-1 = assay: Inhibition of cells growth by colorimetric (SRB) assay, PANC-1; details: for GI50 / CC50: Homo sapiens, PANC-1, 48 h; for GI50: read-out: PANC-1 GI50, SRB assay, 48 hours exposure; for CC50: read-out: PANC-1 LC50, SRB assay, 48 hours exposure; for PANC-1 TGI: SRB assay, 48 hours exposure
Outline: (§1)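 Human tumour cells in RPMI 1640 with 10% FBS were seeded at 5×10^3 cells/well, allowed to attach for 18 h, then exposed to samples at 10 to 10^−8 μg/ml for 48 h. Growth was measured by SRB staining after TCA fixation, with absorbance read at 490 nm in triplicate wells.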

HT-29 = assay: Inhibition of cells growth by colorimetric (SRB) assay, HT-29; details: for GI50 / CC50: Homo sapiens, HT-29, 48 h
Outline: as §1

LoVo = assay: Inhibition of cells growth by colorimetric (SRB) assay, LoVo; details: for GI50 / CC50: Homo sapiens, LoVo, 48 h; for GI50: read-out: LOVO GI50, SRB assay, 48 hours exposure; for CC50: read-out: LOVO LC50, SRB assay, 48 hours exposure; for LOVO TGI: SRB assay, 48 hours exposure
Outline: as §1

HeLa-APL = assay: Inhibition of cells growth by colorimetric (SRB) assay, HeLa-APL; details: for GI50 / CC50: Homo sapiens, 48 h; for GI50: read-out: HELA-APL GI50, SRB assay, 48 hours exposure; for CC50: read-out: HELA-APL LC50, SRB assay, 48 hours exposure; for HELA-APL TGI: SRB assay, 48 hours exposure
Excerpt: (§2) The finality of these assays is to interrupt the growth of a “in vitro” tumor cell culture by means a continued exhibition of the cells to the sample to be testing.
(§3) This form of the assay employs 96 well cell culture microplates of 9 mm diameter (Faircloth, 1988; Mosmann, 1983). Most of the cell lines are obtained from American Type Culture Collection (ATCC) derived from different human cancer types.
(§4) Cells are maintained in RPMI 1640 10% FBS, supplemented with 0.1 g/l penicillin and 0.1 g/l streptomycin sulphate and then incubated at 37° C., 5% CO2 and 98% humidity. For the experiments, cells were harvested from subconfluent cultures using trypsin and resuspended in fresh medium before plating.
(§5) Cells are seeded in 96 well microtiter plates, at 5×10^3 cells per well in aliquots of 195 μl medium, and they are allowed to attach to the plate surface by growing in drug free medium for 18 hours. Afterward, samples are added in aliquots of 5 μl in a ranging from 10 to 10^−8 μg/ml, dissolved in DMSO/EtOH/PBS (0.5:0.5:99). After 48 hours exposure, the antitumor effect are measured by the SRB methodology: cells are fixed by adding 50 μl of cold 50% (wt/vol) trichloroacetic acid (TCA) and incubating for 60 minutes at 4° C. Plates are washed with deionized water and dried. One hundred μl of SRB solution (0.4% wt/vol in 1% acetic acid) is added to each microtiter well and incubated for 10 minutes at room temperature. Unbound SRB is removed by washing with 1% acetic acid. Plates are air dried and bound stain is solubilized with Tris buffer. Optical densities are read on a automated spectrophotometric plate reader at a single wavelength of 490 nm.
(§6) The values for mean +/−SD of data from triplicate wells are calculated. Some parameters for cellular responses can be calculated: GI=growth inhibition, TGI=total growth inhibition (cytostatic effect) and LC=cell killing (cytotoxic effect).

SK-MEL-28 = assay: Inhibition of cells growth by colorimetric (SRB) assay, SK-MEL-28; details: for GI50 / CC50: Homo sapiens, SK-MEL-28, 48 h; for GI50: read-out: MEL-28 GI50, SRB assay, 48 hours exposure; for CC50: read-out: MEL-28 LC50, SRB assay, 48 hours exposure; for MEL-28 TGI: SRB assay, 48 hours exposure
Outline: as §1

DU-145 = assay: Inhibition of cells growth by colorimetric (SRB) assay, DU-145; details: for GI50 / CC50: Homo sapiens, DU-145, 48 h; for GI50: read-out: DU-145 GI50, SRB assay, 48 hours exposure; for CC50: read-out: DU-145 LC50, SRB assay, 48 hours exposure; for DU-145 TGI: SRB assay, 48 hours exposure
Outline: as §1

HeLa = assay: Inhibition of cells growth by colorimetric (SRB) assay, HeLa; details: for GI50: Homo sapiens, HeLa, 48 h, read-out: HELA GI50, SRB assay, 48 hours exposure; for HELA TGI: SRB assay, 48 hours exposure
Excerpt: as §2, §3, §4, §5, §6

LoVo-Dox = assay: Inhibition of cells growth by colorimetric (SRB) assay, LoVo-Dox; details: for GI50 / CC50: Homo sapiens, 48 h; for GI50: read-out: LOVO-DOX GI50, SRB assay, 48 hours exposure; for CC50: read-out: LOVO-DOX LC50, SRB assay, 48 hours exposure; for LOVO-DOX TGI: SRB assay, 48 hours exposure
Outline: as §1

IGROV-ET = assay: Inhibition of cells growth by colorimetric (SRB) assay, IGROV-ET; details: for GI50 / CC50: Homo sapiens, 48 h; for GI50: read-out: IGROV-ET GI50, SRB assay, 48 hours exposure; for CC50: read-out: IGROV-ET LC50, SRB assay, 48 hours exposure; for IGROV-ET TGI: SRB assay, 48 hours exposure
Outline: as §1

IGROV-1 = assay: Inhibition of cells growth by colorimetric (SRB) assay, IGROV-1; details: for GI50 / CC50: Homo sapiens, IGROV-1, 48 h; for GI50: read-out: IGROV GI50, SRB assay, 48 hours exposure; for CC50: read-out: IGROV LC50, SRB assay, 48 hours exposure; for IGROV TGI: SRB assay, 48 hours exposure
Outline: as §1

K-562 = assay: Inhibition of cells growth by colorimetric (SRB) assay, K-562; details: for GI50 / CC50: Homo sapiens, K562, 48 h; for GI50: read-out: K-562 GI50, SRB assay, 48 hours exposure; for CC50: read-out: K-562 LC50, SRB assay, 48 hours exposure; for K-562 TGI: SRB assay, 48 hours exposure
Outline: as §1

SK-BR-3 = assay: Inhibition of cells growth by colorimetric (SRB) assay, SK-BR-3; details: for GI50 / CC50: Homo sapiens, SK-BR-3, 48 h; for GI50: read-out: SK-BR-3 GI50, SRB assay, 48 hours exposure; for CC50: read-out: SK-BR-3 LC50, SRB assay, 48 hours exposure; for SK-BR-3 TGI: SRB assay, 48 hours exposure
Outline: as §1

A-549 = assay: Inhibition of cells growth by colorimetric (SRB) assay, A-549; details: for GI50 / CC50: Homo sapiens, A549, 48 h
Outline: as §1

LNCaP = assay: Inhibition of cells growth by colorimetric (SRB) assay, LNCaP; details: for GI50 / CC50: Homo sapiens, LNCaP, 48 h; for GI50: read-out: LN-caP GI50, SRB assay, 48 hours exposure; for CC50: read-out: LN-caP LC50, SRB assay, 48 hours exposure; for LN-caP TGI: SRB assay, 48 hours exposure
Outline: as §1

[1] = read-out: HT-29 GI50, SRB assay, 48 hours exposure
[2] = read-out: HT-29 LC50, SRB assay, 48 hours exposure
[3] = read-out: A-549 GI50, SRB assay, 48 hours exposure
[4] = read-out: A-549 LC50, SRB assay, 48 hours exposure

With `CS(=O)(=O)c1nccc(-c2c3cccnc3n3c(N)nccc23)n1` [Compound 73] the GI50 (PANC-1) was 12.3 µM, the CC50 (PANC-1) was 29.4 µM and the “PANC-1 TGI” value (PANC-1) was 2.94E−05. For the same compound, the GI50 (HT-29; read-out: GI50 HT-29, SRB assay, 48 hours exposure) was no less than 29.4 µM, the GI50 (HT-29; [1]) was 14.6 µM and the CC50 (HT-29; [2]) was 29.4 µM. For the same compound, the CC50 (HT-29; read-out: LC50 HT-29, SRB assay, 48 hours exposure) was no less than 147 µM, the “HT-29 TGI” value (HT-29; SRB assay, 48 hours exposure) was 2.94E−05 and the “TGI HT-29” value (HT-29; SRB assay, 48 hours exposure) was 1.47E−04. For the same compound, the GI50 (LoVo) was 14.4 µM, the CC50 (LoVo) was 29.4 µM and the “LOVO TGI” value (LoVo) was 2.94E−05. For the same compound, the GI50 (HeLa-APL) was 0.013 µM, the CC50 (HeLa-APL) was 7.23 µM and the “HELA-APL TGI” value (HeLa-APL) was 7.23E−08. The GI50 (SK-MEL-28) was 5.46 µM, the CC50 (SK-MEL-28) was 29.4 µM and the “MEL-28 TGI” value (SK-MEL-28) was 2.94E−05. For the same compound, the GI50 (DU-145) was 29.4 µM, the CC50 (DU-145) was 29.4 µM and the “DU-145 TGI” value (DU-145) was 2.94E−05. The GI50 (HeLa) was 0.00896 µM, the “HELA TGI” value (HeLa) was 3.58E−08 and the GI50 (LoVo-Dox) was 10.1 µM. For the same compound, the CC50 (LoVo-Dox) was 29.4 µM, the “LOVO-DOX TGI” value (LoVo-Dox) was 2.94E−05 and the GI50 (IGROV-ET) was 2.05 µM. The CC50 (IGROV-ET) was 29.4 µM, the “IGROV-ET TGI” value (IGROV-ET) was 2.94E−05 and the GI50 (IGROV-1) was 5.41 µM. The CC50 (IGROV-1) was 29.4 µM, the “IGROV TGI” value (IGROV-1) was 2.94E−05 and the GI50 (K-562) was 13.7 µM. For the same compound, the CC50 (K-562) was 29.4 µM, the “K-562 TGI” value (K-562) was 2.94E−05 and the GI50 (SK-BR-3) was 2.08 µM. For the same compound, the CC50 (SK-BR-3) was 29.4 µM, the “SK-BR-3 TGI” value (SK-BR-3) was 9.37E−06 and the GI50 (A-549; [3]) was 11.3 µM. It also gave a CC50 (A-549; [4]) of 29.4 µM, a GI50 (A-549; read-out: GI50 A-549, SRB assay, 48 hours exposure) of 4.41 µM and a CC50 (A-549; read-out: LC50 A-549, SRB assay, 48 hours exposure) of no less than 147 µM. The “A-549 TGI” value (A-549; SRB assay, 48 hours exposure) was 2.94E−05, the “TGI A-549” value (A-549; SRB assay, 48 hours exposure) was 1.47E−04 and the GI50 (LNCaP) was 4.76 µM. For the same compound, the CC50 (LNCaP) was 29.4 µM and the “LN-caP TGI” value (LNCaP) was 1.51E−05.

`Cl.Nc1nccc(-c2c3c(Cl)ccnc3n3c(N)nccc23)n1` [Compound 83] was tested, and the GI50 (PANC-1) was 1.95 µM, the CC50 (PANC-1) was 26 µM and the “PANC-1 TGI” value (PANC-1) was 1.07E−05. For the same compound, the GI50 (HT-29; [1]) was 1.37 µM, the CC50 (HT-29; [2]) was 26 µM and the “HT-29 TGI” value (HT-29; SRB assay, 48 hours exposure) was 3.90E−06. The GI50 (LoVo) was 0.471 µM, the CC50 (LoVo) was 2.09 µM and the “LOVO TGI” value (LoVo) was 9.90E−07. The GI50 (HeLa-APL) was 0.0478 µM, the CC50 (HeLa-APL) was 0.257 µM and the “HELA-APL TGI” value (HeLa-APL) was 1.11E−07. For the same compound, the GI50 (SK-MEL-28) was 1.32 µM, the CC50 (SK-MEL-28) was 11.8 µM and the “MEL-28 TGI” value (SK-MEL-28) was 3.64E−06. The GI50 (DU-145) was 0.621 µM, the CC50 (DU-145) was 8.32 µM and the “DU-145 TGI” value (DU-145) was 1.49E−06. The GI50 (HeLa) was 0.0478 µM, the “HELA TGI” value (HeLa) was 1.38E−07 and the GI50 (LoVo-Dox) was 0.803 µM. For the same compound, the CC50 (LoVo-Dox) was 17.8 µM, the “LOVO-DOX TGI” value (LoVo-Dox) was 1.72E−06 and the GI50 (IGROV-ET) was 1.08 µM. For the same compound, the CC50 (IGROV-ET) was 26 µM, the “IGROV-ET TGI” value (IGROV-ET) was 2.29E−06 and the GI50 (IGROV-1) was 0.998 µM. The CC50 (IGROV-1) was 26 µM, the “IGROV TGI” value (IGROV-1) was 3.17E−06 and the GI50 (K-562) was 2.6 µM. For the same compound, the CC50 (K-562) was 26 µM, the “K-562 TGI” value (K-562) was 1.73E−05 and the GI50 (SK-BR-3) was 0.575 µM. The CC50 (SK-BR-3) was 1.92 µM, the “SK-BR-3 TGI” value (SK-BR-3) was 1.05E−06 and the GI50 (A-549; [3]) was 0.757 µM. For the same compound, the CC50 (A-549; [4]) was 8.66 µM, the “A-549 TGI” value (A-549; SRB assay, 48 hours exposure) was 1.57E−06 and the GI50 (LNCaP) was 0.424 µM. For the same compound, the CC50 (LNCaP) was 1.52 µM and the “LN-caP TGI” value (LNCaP) was 8.03E−07.
